Entries after “also recorded” stand apart in the source; their conditions may differ.
Key:
[1] = system: Kelly cells; assay: ATPlite cell growth inhibition assay, Kelly cell lines treated 72 hours; format: cell-based
Method: Compounds CPD 1 to CPD 22 were tested via ATPlite™ assay (ATPlite™ 1000 assay kit, PerkinElmer®, USA) using standard protocol. […] The signal is normalized to DMSO treated cells.

[2] = system: Kelly cells; assay: Colony formation assay, Kelly cells; format: cell-based; settings: 10 days
Text: The experimental method for the colony formation assay is as described in Durbin et al., Nat Genet. 50(9):1240-60 (2018).

[3] = system: Kelly cell lines xenograft; assay: Xenograft model of Kelly cell lines; format: in vivo; settings: 40 mpk IP from day 10
Text: The xenograft model of Kelly cell lines was used to assess the in vivo efficacy. The Kelly cells were implanted 2 M into animals. The treatment started with day 10 at 40 mpk IP.

[4] = target: T1, EP300 (Homo sapiens, UniProt Q09472); assay: Immunoblot in CRBN knockout Kelly cell lines, EP300; format: cell-based; settings: CRBN-1 and CRBN-3 Kelly lines, 500 nM
T1 construct: Whole cell lysates were collected using ice cold lysis buffer; endogenous in cells; host or cells: Kelly neuroblastoma cells (incl. Ch2.2, LACZ and CRBN knockout lines)
Method: (§1) CPD 1 was tested in CRBN knockout (k/o) Kelly cell lines. The experimental protocol is the same as in Example 24.

[5] = target: T1, EP300; assay: Proteomics analysis in Kelly NB cells, EP300; format: cell-based; settings: 500 nM, 6 hours and 36 hours
Method: (§2) FIG. 9C is a plot of the proteomics analysis results after treating Kelly NB cells with CPD 1 (500 nM) at 6 hours and 36 hours.

[6] = target: cereblon (CRBN) (Homo sapiens, UniProt Q96SW2); assay: AlphaScreen assay, cereblon (CRBN); format: binding
Text: An AlphaLISA® assay for EP300 catalytic function (FIG. 3B) and an AlphaScreen™ assay for EP300 bromodomain and cereblon (CRBN) using biotinylated tagged small molecules as a probe for EP300 bromodomain and CRBN, respectively, were developed (FIG. 3C).
AlphaScreen™ assay was used to determine the binding of inventive degrader compound toward both CRBN and HAT domain.

[7] = system: U266 cells; assay: 6-day MTT assay, U266 cells; format: cell-based; settings: 0-10 μM
Method: (§3) Media from cell cultures was discarded. For adherent cells, the media was carefully aspirated. For suspension cells, the 96 well plate at 1,000×g, 4° C., was spun for 5 minutes in a microplate-compatible centrifuge and the media was carefully aspirated. The volume of existing media has to be the same for each sample. Fifty (50) μL of serum-free media and 50 μL of MTT solution were added into each well. The plate was incubated at 37° C. for 3 hours.
(§4) After incubation, 150 μL of MTT solvent were added into each well. The plate was wrapped in foil and shaken on an orbital shaker for 15 minutes. Absorbance was read at OD=590 nm. Reading was performed within 1 hour.

[8] = system: MM.1S cells; assay: 4-day growth inhibition assay (ATPlite / cell counting kit), MM.1S cells; format: cell-based; settings: 0-10 μM
Method: An aliquot of the ATP standard solution (ATPlite™ 1000 assay kit, PerkinElmer®, USA) was used to prepare a dilution series in water. A series of 100 μL of complete culture medium was pipetted without cells into the wells of the plate. To each well was added 50 μL of the mammalian cell lysis solution, and the plate was shaken for 5 minutes in an orbital shaker at 700 rpm. 10 μL of the ATP dilution series was added to the wells, and the plate was shaken for 5 minutes in an orbital shaker at 700 rpm. 50 μL of the substrate solution was added and the plate was shaken for 5 minutes in an orbital shaker at 700 rpm. The plate dark adapted the plate for 10 minutes prior to measuring the luminescence and then preparing a standard curve.

[9] = target: T2, CBP (Mus musculus, UniProt P45481); assay: Immunohistochemistry (IHC) staining of liver from MTD study, CBP; format: in vivo; settings: normal mice, 40 mpk, 14-day treatment
T2 construct: from tissue; host or cells: mouse liver (CD1 mice)
Text: (§5) Immunohistochemistry (IHC) staining was used to examine a liver from MTD study. […] No changes in CBP and H3K27Ac levels were observed.

[10] = Mouse PK after intraperitoneal injection, blood concentration by LCMS/MS; format: in vivo; settings: IP 10 mg/kg, male CD1 mice
Method: The compound concentration in animal blood was measured by LCMS/MS through a series bleeding at different time points. […] A-485 half life is 0.7 h in mice.
(§6) Maximum tolerance dose (MTD) of each candidate was determined in zebrafish embryos. 3-day-old zebrafish embryos were exposed to different drug concentrations and monitored for adverse health effects. […] Experiments were first carried out with compound CPD 1 as a guide in the further design of MTD assessment of lead EP300 degraders (FIG. 6B). The MTD of the degrader is also determined in mice in the similar manor. Briefly, mice were dosed with test compounds and blood and plasma is isolated at specific intervals post-administration (0.083, 0.25, 0.5, 1, 2, 4, 8, 12, and 24 h) and quantified for the presence of test article by LC/MS/MS (n=5 mice/compound). In vivo mouse PK experiments were used to determine these parameters and inform iterative rounds of medicinal chemistry for optimization of EP300 degraders (FIG. 6A). As degraders have a relatively large molecular weight, the proper formulation is investigated to increase the solubility and stability of the degraders for in vivo study. Together, these parameters, including the established MTD, are used to guide the in vivo study design, such as administration method, dosing, and schedule for the following experiment. The information obtained was also used to guide the degrader optimization conducted in Example 36.

[11] = system: H3K27Ac; assay: Immunohistochemistry (IHC) staining of liver from MTD study, H3K27Ac; format: in vivo; settings: normal mice, 40 mpk, 14-day treatment
Text: as §5

[12] = system: CRBN k/o cell lines; assay: Cell viability in CRBN knockout Kelly cell lines; format: cell-based
Method: as §1

[13] = system: MM.1S cells; assay: 6-day MTT assay, MM.1S cells; format: cell-based; settings: 0-10 μM
Method: as §3, §4

[14] = target: T3, CBP (Homo sapiens, UniProt Q92793); assay: Proteomics analysis in Kelly NB cells, CBP; format: cell-based; settings: 500 nM, 6 hours and 36 hours
T3 construct: endogenous in cells; host or cells: Kelly neuroblastoma cells (incl. Ch2.2, LACZ and CRBN knockout lines)
Method: as §2

[15] = system: NB zebra fish model; assay: NB zebra fish model; format: in vivo
Method: as §6

[16] = target: T3, CBP; assay: Immunoblot in CRBN knockout Kelly cell lines, CBP; format: cell-based; settings: CRBN-1 and CRBN-3 Kelly lines, 500 nM
Method: as §1

T3 sequence (Q92793 whole entry): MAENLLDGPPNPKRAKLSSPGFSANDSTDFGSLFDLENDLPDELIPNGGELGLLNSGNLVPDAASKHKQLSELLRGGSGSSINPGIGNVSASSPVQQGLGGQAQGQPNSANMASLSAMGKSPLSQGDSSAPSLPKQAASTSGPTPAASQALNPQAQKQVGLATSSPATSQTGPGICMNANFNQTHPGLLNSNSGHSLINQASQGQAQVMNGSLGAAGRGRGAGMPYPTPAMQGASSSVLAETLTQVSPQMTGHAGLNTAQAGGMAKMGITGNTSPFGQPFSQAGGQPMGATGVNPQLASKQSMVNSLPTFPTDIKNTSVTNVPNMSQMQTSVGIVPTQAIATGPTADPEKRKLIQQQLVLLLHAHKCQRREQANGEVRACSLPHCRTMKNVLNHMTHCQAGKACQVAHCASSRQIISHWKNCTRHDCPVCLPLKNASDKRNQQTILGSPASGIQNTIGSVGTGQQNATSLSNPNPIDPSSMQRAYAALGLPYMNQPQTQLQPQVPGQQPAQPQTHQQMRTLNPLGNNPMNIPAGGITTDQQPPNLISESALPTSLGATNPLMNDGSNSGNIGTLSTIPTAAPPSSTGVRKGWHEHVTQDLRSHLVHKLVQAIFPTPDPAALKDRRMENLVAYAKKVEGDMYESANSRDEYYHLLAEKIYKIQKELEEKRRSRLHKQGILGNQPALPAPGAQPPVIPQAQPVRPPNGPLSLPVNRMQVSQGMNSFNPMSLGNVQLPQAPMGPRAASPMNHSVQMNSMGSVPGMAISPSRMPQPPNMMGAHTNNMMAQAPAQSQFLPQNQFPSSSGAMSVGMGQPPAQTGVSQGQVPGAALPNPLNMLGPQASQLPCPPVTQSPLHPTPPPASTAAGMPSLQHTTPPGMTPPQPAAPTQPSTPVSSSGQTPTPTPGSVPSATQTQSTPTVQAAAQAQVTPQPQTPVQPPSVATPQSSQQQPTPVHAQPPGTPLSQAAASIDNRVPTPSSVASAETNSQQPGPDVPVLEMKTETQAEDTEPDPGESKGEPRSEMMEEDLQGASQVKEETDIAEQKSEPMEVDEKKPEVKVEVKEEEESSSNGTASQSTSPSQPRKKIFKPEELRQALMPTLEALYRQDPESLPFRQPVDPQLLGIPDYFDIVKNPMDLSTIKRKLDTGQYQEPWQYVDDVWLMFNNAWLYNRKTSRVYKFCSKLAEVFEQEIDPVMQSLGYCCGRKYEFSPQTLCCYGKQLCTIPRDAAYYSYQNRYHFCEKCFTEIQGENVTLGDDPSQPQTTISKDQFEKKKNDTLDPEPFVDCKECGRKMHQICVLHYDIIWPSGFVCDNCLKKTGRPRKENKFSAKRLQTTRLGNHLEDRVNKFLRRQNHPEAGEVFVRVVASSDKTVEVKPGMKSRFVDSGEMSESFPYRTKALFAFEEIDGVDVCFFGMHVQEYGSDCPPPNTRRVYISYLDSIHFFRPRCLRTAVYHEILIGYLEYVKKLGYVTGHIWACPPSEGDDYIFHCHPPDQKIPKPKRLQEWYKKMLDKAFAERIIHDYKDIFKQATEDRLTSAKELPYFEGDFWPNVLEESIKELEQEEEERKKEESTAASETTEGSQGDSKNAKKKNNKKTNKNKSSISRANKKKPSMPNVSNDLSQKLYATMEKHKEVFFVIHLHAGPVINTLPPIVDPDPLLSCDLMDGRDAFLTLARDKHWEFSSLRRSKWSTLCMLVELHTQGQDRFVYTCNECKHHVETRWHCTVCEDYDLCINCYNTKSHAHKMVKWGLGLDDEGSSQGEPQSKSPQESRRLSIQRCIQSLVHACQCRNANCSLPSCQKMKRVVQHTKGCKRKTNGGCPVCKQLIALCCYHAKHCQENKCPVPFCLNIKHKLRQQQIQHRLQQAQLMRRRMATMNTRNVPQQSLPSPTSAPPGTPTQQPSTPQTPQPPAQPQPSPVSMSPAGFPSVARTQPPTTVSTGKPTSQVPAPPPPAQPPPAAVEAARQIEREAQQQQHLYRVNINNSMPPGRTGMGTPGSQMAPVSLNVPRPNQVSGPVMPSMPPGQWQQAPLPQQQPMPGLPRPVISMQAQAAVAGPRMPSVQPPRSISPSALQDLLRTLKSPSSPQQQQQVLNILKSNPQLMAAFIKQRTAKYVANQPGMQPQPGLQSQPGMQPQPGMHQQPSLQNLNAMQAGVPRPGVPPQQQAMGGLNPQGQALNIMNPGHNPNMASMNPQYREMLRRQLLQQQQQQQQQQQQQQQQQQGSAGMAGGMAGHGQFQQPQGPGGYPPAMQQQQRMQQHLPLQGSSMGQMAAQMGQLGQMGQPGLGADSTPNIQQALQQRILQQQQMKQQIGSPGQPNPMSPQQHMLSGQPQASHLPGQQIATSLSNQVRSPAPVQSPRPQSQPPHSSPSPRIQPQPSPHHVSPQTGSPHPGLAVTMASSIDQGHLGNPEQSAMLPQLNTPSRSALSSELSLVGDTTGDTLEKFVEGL
T1 sequence (Q09472 whole entry): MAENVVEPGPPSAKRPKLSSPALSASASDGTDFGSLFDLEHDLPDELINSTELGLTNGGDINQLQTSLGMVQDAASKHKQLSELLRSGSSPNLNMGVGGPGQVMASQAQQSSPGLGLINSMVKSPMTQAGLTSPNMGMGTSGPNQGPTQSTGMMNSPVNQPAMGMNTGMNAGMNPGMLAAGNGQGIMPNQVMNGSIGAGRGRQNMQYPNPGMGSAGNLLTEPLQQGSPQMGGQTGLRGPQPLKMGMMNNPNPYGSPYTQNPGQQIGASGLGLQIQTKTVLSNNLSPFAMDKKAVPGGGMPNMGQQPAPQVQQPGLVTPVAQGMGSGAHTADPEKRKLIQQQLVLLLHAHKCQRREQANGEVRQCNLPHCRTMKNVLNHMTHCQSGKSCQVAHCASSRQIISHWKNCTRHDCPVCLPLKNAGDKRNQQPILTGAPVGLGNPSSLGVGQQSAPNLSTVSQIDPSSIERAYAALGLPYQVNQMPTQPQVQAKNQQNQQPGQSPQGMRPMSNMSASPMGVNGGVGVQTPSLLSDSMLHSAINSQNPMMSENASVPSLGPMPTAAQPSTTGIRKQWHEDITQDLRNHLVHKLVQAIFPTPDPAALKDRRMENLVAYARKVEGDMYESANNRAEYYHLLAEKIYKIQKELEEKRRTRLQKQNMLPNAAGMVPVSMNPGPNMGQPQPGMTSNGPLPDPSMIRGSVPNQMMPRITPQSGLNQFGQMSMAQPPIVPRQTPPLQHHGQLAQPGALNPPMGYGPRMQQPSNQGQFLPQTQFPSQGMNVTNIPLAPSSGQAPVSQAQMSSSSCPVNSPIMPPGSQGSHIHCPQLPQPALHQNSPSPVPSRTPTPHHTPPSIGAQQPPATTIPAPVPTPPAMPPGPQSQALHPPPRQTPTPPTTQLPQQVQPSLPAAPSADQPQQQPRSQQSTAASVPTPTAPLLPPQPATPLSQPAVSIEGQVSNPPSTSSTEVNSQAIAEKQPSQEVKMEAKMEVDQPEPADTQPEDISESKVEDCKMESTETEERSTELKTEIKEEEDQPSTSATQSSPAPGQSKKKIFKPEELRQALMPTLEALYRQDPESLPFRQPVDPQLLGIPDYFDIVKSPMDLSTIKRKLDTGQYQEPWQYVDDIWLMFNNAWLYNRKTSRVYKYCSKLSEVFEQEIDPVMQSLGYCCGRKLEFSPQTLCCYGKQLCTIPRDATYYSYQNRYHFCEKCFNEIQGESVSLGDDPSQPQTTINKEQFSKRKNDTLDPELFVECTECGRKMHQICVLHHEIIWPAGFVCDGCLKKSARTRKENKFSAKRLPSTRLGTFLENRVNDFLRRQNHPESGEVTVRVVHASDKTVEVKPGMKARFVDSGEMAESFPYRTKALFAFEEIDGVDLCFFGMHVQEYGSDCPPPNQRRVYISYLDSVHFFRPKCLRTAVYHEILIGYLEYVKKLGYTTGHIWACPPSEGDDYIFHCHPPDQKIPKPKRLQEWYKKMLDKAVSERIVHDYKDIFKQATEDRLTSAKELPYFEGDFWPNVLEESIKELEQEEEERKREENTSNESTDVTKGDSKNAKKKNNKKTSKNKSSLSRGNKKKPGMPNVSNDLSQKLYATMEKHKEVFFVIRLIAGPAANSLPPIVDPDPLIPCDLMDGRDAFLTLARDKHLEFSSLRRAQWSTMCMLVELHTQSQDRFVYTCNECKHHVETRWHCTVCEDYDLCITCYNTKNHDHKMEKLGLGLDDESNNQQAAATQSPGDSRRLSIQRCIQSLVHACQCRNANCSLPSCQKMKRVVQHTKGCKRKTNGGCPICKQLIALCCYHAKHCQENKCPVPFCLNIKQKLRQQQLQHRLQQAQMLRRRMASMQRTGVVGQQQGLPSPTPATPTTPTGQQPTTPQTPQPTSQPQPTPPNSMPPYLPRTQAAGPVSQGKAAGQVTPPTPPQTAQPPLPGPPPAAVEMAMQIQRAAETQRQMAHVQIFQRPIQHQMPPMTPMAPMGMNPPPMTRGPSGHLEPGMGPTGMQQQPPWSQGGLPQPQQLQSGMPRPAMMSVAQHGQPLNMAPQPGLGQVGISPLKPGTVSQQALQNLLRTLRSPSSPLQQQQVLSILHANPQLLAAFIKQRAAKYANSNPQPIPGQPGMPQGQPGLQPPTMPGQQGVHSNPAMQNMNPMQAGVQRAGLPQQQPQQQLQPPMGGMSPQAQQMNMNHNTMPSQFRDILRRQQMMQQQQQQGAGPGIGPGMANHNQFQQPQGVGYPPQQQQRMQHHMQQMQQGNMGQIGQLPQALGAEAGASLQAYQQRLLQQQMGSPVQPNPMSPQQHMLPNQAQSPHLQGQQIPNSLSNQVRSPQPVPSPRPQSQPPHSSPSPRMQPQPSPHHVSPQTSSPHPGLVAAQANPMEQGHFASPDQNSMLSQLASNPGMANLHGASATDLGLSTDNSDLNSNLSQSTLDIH

In the case of `C[C@H](N(Cc1ccc(F)cc1)C(=O)CN1C(=O)O[C@@]2(CCc3cc(NC(=O)CCCCCCCCCCCNc4ccc5c(c4)C(=O)N(C4CCC(=O)NC4=O)C5=O)ccc32)C1=O)C(F)(F)F` (stereo partly drawn) [CPD 1, 12-((2-(2,6-dioxopiperidin-3-yl)-1,3-dioxoisoindolin-5-yl)amino)-N—((R)-3′-(2-((4-fluorobenzyl)((S)-1,1,1-trifluoropropan-2-yl)amino)-2-oxoethyl)-2′,4′-dioxo-2,3-dihydrospiro[indene-1,5′-oxazolidin]-5-yl)dodecanamide], the “Kelly NB cell growth inhibition” value ([1]; 72 hours, ATPlite, normalized to DMSO) is reported as “outperformed positive control A485; also recorded: Cell growth inhibition was observed; also recorded: much higher potency compared to inhibitor alone”, the IC50 ([1]; ND: not detected) is reported as 0.166 µM and the “Kelly cell growth, colony formation” value [2] is reported as “inhibited the Kelly cell growth in a dose dependent manner”. For the same compound, the survival of animals [3] was “extended the survival of animals”, the tumor progression [3] was “reduced tumor progression” and the “EP300 degradation in CRBN k/o lines” value [4] was “did not degrade”. For the same compound, the “EP300 degradation (proteomics)” value [5] was “selectively and significantly degraded”, the “binding to cereblon (CRBN)” value [6] was “bound and bind” and the “growth inhibition compared with A485” value [7] was “outperformed inhibitor A485”. For the same compound, the “growth inhibition compared with A485” value [8] was “outperformed inhibitor A485”, the “CBP level in liver tissue” value [9] was “No changes” and the “toxicity in PK study” value [10] was “No toxicity was observed”. The Cmax ([10]; mouse, whole blood, n=3) was 5 µM, the half-life ([10]; mouse, whole blood, n=3) was 13 h and the “H3K27Ac level in liver tissue” value [11] was “No changes”. For the same compound, the “cell growth inhibition in CRBN k/o cell lines” value [12] was “did not affect CRBN k/o cell lines”, the “growth inhibition compared with A485” value [13] was “outperformed inhibitor A485” and the “CBP level (proteomics)” value [14] was “No changes in the CBP level were observed”. For the same compound, the tumor growth inhibition ([15]; NB zebra fish model, 0.25 μM and 0.5 μM) was “tumor growth inhibition”, the “toxicity in zebra fish study” value ([15]; zebra fish) was “No toxicity was observed” and the “CBP degradation in CRBN k/o lines” value [16] was “did not degrade”.
